These compounds were tested against T1, ZIKV NS2B-NS3 protease (Zika virus, UniProt A0A024B7W1) (assay: ZIKV NS2B-NS3 protease biochemical FRET assay). Conditions: @ 100 μM.
T1 construct: directed at the co-expressed ZIKV NS2B-NS3 protease
T1 sequence (A0A024B7W1 1503-1680): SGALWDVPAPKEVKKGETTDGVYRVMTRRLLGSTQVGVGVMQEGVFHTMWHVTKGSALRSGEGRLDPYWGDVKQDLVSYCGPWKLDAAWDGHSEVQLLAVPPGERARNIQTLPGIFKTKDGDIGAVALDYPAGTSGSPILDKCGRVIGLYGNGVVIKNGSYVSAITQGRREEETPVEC
T1 sequence (A0A024B7W1 1425-1464): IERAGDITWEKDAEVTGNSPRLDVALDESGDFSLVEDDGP

Row | Compound | inhibition in biochemical assay
1 | CC(C)(CO)NC(=O)c1cccc(Cl)c1 [Z68299550] | n.i.

Same assay, conditions: Ligand efficiency = pKi / heavy atom count

Row | Compound | Ligand efficiency (LE)
2 | O=C(Nc1cc(Cl)cc(C(=O)Nc2ccc3c(c2)CNC3)c1)OCc1ccccc1 [ASAP-0020915] | 0.316

Same assay, conditions: ZIKV NS2B-NS3 Ki (uM), library 1, supplement

Row | Compound | Ki [µM]
3 | O=C(Nc1cc(Cl)cc(C(=O)Nc2nccn2C2CNC2)c1)OCc1ccccc1 [ASAP-0021559, O=C(Nc1cc(Cl)cc(C(=O)Nc2nccn2C2CNC2)c1)OCc1ccccc1] | > 89.3
4 | Cc1cc(CN)cc(NC(=O)c2cc(Cl)cc(NC(=O)OCc3ccccc3)c2)c1 [ASAP-0021201, Cc1cc(CN)cc(NC(=O)c2cc(Cl)cc(NC(=O)OCc3ccccc3)c2)c1] | 4.63
5 | O=C(Nc1cc(Cl)cc(C(=O)Nc2nc3c(s2)CNC3)c1)OCc1ccccc1 [ASAP-0021026, O=C(Nc1cc(Cl)cc(C(=O)Nc2nc3c(s2)CNC3)c1)OCc1ccccc1] | 76.9
6 | O=C(Nc1cc(Cl)cc(C(=O)Nc2ncc(C3CNC3)s2)c1)OCc1ccccc1 [ASAP-0021562, O=C(NC1=CC(Cl)=CC(C(=O)NC2=NC=C(C3CNC3)S2)=C1)OCC1=CC=CC=C1] | > 89.3
7 | O=C(Nc1cc(Cl)cc(C(=O)Nc2cccc(CC3CCNCC3)c2)c1)OCc1ccccc1 [ASAP-0017638, O=C(Nc1cc(Cl)cc(C(=O)Nc2cccc(CC3CCNCC3)c2)c1)OCc1ccccc1] | > 89.3
8 | CC(C)N1CCc2nc(NC(=O)c3cc(Cl)cc(NC(=O)OCc4ccccc4)c3)sc2C1 [ASAP-0020812, CC(C)N1CCc2nc(NC(=O)c3cc(Cl)cc(NC(=O)OCc4ccccc4)c3)sc2C1] | > 89.3
9 | O=C(Nc1cc(Cl)cc(C(=O)NCCC2COCCN2)c1)OCc1ccccc1 (stereo not shown) [ASAP-0022490, O=C(NC1=CC(Cl)=CC(C(=O)NCC[C@H]2COCCN2)=C1)OCC1=CC=CC=C1 ¦&1:14¦] | > 89.3
10 | CN(C)Cc1csc(NC(=O)c2cc(Cl)cc(NC(=O)OCc3ccccc3)c2)n1 [ASAP-0021243, CN(C)Cc1csc(NC(=O)c2cc(Cl)cc(NC(=O)OCc3ccccc3)c2)n1] | > 89.3
11 | O=C(Nc1cc(Cl)cc(C(=O)Nc2ncc3n2CCNC3)c1)OCc1ccccc1 [ASAP-0020975, O=C(Nc1cc(Cl)cc(C(=O)Nc2ncc3n2CCNC3)c1)OCc1ccccc1] | > 89.3
12 | O=C(Nc1cc(Cl)cc(C(=O)NCC2(CO)CCNCC2)c1)OCc1ccccc1 [ASAP-0021096, O=C(Nc1cc(Cl)cc(C(=O)NCC2(CO)CCNCC2)c1)OCc1ccccc1] | > 89.3
13 | C[C@H](N)c1cccc(NC(=O)c2cc(Cl)cc(NC(=O)OCc3ccccc3)c2)c1 [ASAP-0021091, C[C@H](N)c1cccc(NC(=O)c2cc(Cl)cc(NC(=O)OCc3ccccc3)c2)c1] | 12.3
14 | Cn1nc2c(c1NC(=O)c1cc(Cl)cc(NC(=O)OCc3ccccc3)c1)CNC2 [ASAP-0020883, Cn1nc2c(c1NC(=O)c1cc(Cl)cc(NC(=O)OCc3ccccc3)c1)CNC2] | > 89.3
15 | CN(C(=O)c1cc(Cl)cc(NC(=O)OCc2ccccc2)c1)c1ccc(CN)cc1 [ASAP-0017677, CN(C(=O)c1cc(Cl)cc(NC(=O)OCc2ccccc2)c1)c1ccc(CN)cc1] | > 89.3
16 | NCC12CC(NC(=O)c3cc(Cl)cc(NC(=O)OCc4ccccc4)c3)(CCO1)C2 [ASAP-0021607, NCC12CC(NC(=O)c3cc(Cl)cc(NC(=O)OCc4ccccc4)c3)(CCO1)C2] | > 89.3
17 | CN(C)Cc1cc(NC(=O)c2cc(Cl)cc(NC(=O)OCc3ccccc3)c2)sn1 [ASAP-0020825, CN(C)Cc1cc(NC(=O)c2cc(Cl)cc(NC(=O)OCc3ccccc3)c2)sn1] | > 89.3
18 | Cc1c(CN)cccc1NC(=O)c1cc(Cl)cc(NC(=O)OCc2ccccc2)c1 [ASAP-0021118, Cc1c(CN)cccc1NC(=O)c1cc(Cl)cc(NC(=O)OCc2ccccc2)c1] | 40.1
19 | Cn1nc(CCN)nc1NC(=O)c1cc(Cl)cc(NC(=O)OCc2ccccc2)c1 [ASAP-0021177, Cn1nc(CCN)nc1NC(=O)c1cc(Cl)cc(NC(=O)OCc2ccccc2)c1] | 28.1
20 | CN1CCc2nc(NC(=O)c3cc(Cl)cc(NC(=O)OCc4ccccc4)c3)sc2C1 [ASAP-0020935, CN1CCc2nc(NC(=O)c3cc(Cl)cc(NC(=O)OCc4ccccc4)c3)sc2C1] | > 89.3

Row | Compound | Ki [µM]
21 | Cc1ccc(NC(=O)c2cc(Cl)cc(NC(=O)OCc3ccccc3)c2)cc1CN [ASAP-0021119, Cc1ccc(NC(=O)c2cc(Cl)cc(NC(=O)OCc3ccccc3)c2)cc1CN] | 9.81
22 | NCCNC(=O)c1cc(Cl)cc(NC(=O)OCc2ccccc2)c1 [ASAP-0017736, NCCNC(=O)c1cc(Cl)cc(NC(=O)OCc2ccccc2)c1] | > 89.3
23 | NC12CCC(CNC(=O)c3cc(Cl)cc(NC(=O)OCc4ccccc4)c3)(CC1)OC2 [ASAP-0021132, NC12CCC(CNC(=O)c3cc(Cl)cc(NC(=O)OCc4ccccc4)c3)(CC1)OC2] | 29.7
24 | NCCc1ccc(NC(=O)c2cc(Cl)cc(NC(=O)OCc3ccccc3)c2)cc1 [ASAP-0017692, NCCc1ccc(NC(=O)c2cc(Cl)cc(NC(=O)OCc3ccccc3)c2)cc1] | 9.64
25 | O=C(Nc1cc(Cl)cc(C(=O)Nc2ccc3c(c2)CNCCO3)c1)OCc1ccccc1 [ASAP-0021552, O=C(Nc1cc(Cl)cc(C(=O)Nc2ccc3c(c2)CNCCO3)c1)OCc1ccccc1] | 6.9
26 | Cn1nc(NC(=O)c2cc(Cl)cc(NC(=O)OCc3ccccc3)c2)c2c1CNC2 [ASAP-0021036, Cn1nc(NC(=O)c2cc(Cl)cc(NC(=O)OCc3ccccc3)c2)c2c1CNC2] | > 89.3
27 | NCc1ccc(NC(=O)c2cc(Cl)cc(NC(=O)OCc3ccccc3)c2)cc1 [ASAP-0017575, NCc1ccc(NC(=O)c2cc(Cl)cc(NC(=O)OCc3ccccc3)c2)cc1] | 9.23
28 | NCc1cc(F)cc(NC(=O)c2cc(Cl)cc(NC(=O)OCc3ccccc3)c2)c1 [ASAP-0021659, NCc1cc(F)cc(NC(=O)c2cc(Cl)cc(NC(=O)OCc3ccccc3)c2)c1] | 5.26
29 | NCCc1nsc(NC(=O)c2cc(Cl)cc(NC(=O)OCc3ccccc3)c2)n1 [ASAP-0021153, NCCc1nsc(NC(=O)c2cc(Cl)cc(NC(=O)OCc3ccccc3)c2)n1] | > 89.3
30 | NCc1ccc(O)c(NC(=O)c2cc(Cl)cc(NC(=O)OCc3ccccc3)c2)c1 [ASAP-0021142, NCc1ccc(O)c(NC(=O)c2cc(Cl)cc(NC(=O)OCc3ccccc3)c2)c1] | 16.3
31 | C[C@@H](N)c1cccc(NC(=O)c2cc(Cl)cc(NC(=O)OCc3ccccc3)c2)c1 [ASAP-0021650, C[C@@H](N)c1cccc(NC(=O)c2cc(Cl)cc(NC(=O)OCc3ccccc3)c2)c1] | 20.4
32 | O=C(Nc1cc(Cl)cc(C(=O)Nc2n[nH]c3c2CNC32CC2)c1)OCc1ccccc1 [ASAP-0021028, O=C(Nc1cc(Cl)cc(C(=O)Nc2n[nH]c3c2CNC32CC2)c1)OCc1ccccc1] | > 89.3
33 | O=C(Nc1cc(Cl)cc(C(=O)NCc2n[nH]c3c2CNCC3)c1)OCc1ccccc1 [ASAP-0021271, O=C(Nc1cc(Cl)cc(C(=O)NCc2n[nH]c3c2CNCC3)c1)OCc1ccccc1] | > 89.3
34 | O=C(Nc1cc(Cl)cc(C(=O)Nc2cccc(C3CCNCC3)c2)c1)OCc1ccccc1 [ASAP-0017708, O=C(Nc1cc(Cl)cc(C(=O)Nc2cccc(C3CCNCC3)c2)c1)OCc1ccccc1] | 11.2
35 | Cn1nc2c(c1NC(=O)c1cc(Cl)cc(NC(=O)OCc3ccccc3)c1)CNCC2 [ASAP-0021291, Cn1nc2c(c1NC(=O)c1cc(Cl)cc(NC(=O)OCc3ccccc3)c1)CNCC2] | 19.7
36 | O=C(Nc1cc(Cl)cc(C(=O)Nc2cc3n(n2)CCNC3)c1)OCc1ccccc1 [ASAP-0020976, O=C(Nc1cc(Cl)cc(C(=O)Nc2cc3n(n2)CCNC3)c1)OCc1ccccc1] | > 89.3
37 | NCc1cn(CCNC(=O)c2cc(Cl)cc(NC(=O)OCc3ccccc3)c2)nn1 [ASAP-0021085, NCc1cn(CCNC(=O)c2cc(Cl)cc(NC(=O)OCc3ccccc3)c2)nn1] | > 89.3

Same assay, conditions: ZIKV NS2B-NS3 pKi, library 1, supplement

Row | Compound | Ki [µM]
38 | NCCCc1cccc(NC(=O)c2cc(Cl)cc(NC(=O)OCc3ccccc3)c2)n1 [ASAP-0021169, NCCCc1cccc(NC(=O)c2cc(Cl)cc(NC(=O)OCc3ccccc3)c2)n1] | 17

Same assay, conditions: library 1, supplement

Row | Compound | ZIKV NS2B-NS3 pKi
39 | NC[C@H]1C[C@@H](CNC(=O)c2cc(Cl)cc(NC(=O)OCc3ccccc3)c2)CCO1 [ASAP-0021664, NC[C@H]1C[C@@H](CNC(=O)c2cc(Cl)cc(NC(=O)OCc3ccccc3)c2)CCO1 ¦&1:2,&2:4¦] | < 4.05
40 | C=CC[C@@]1(NC(=O)c2cc(Cl)cc(NC(=O)OCc3ccccc3)c2)CCNC1 [ASAP-0021490, C=CC[C@@]1(NC(=O)c2cc(Cl)cc(NC(=O)OCc3ccccc3)c2)CCNC1 ¦&1:3¦] | < 4.05
41 | C[C@]1(CNC(=O)c2cc(Cl)cc(NC(=O)OCc3ccccc3)c2)CNCCOC1 [ASAP-0021641, C[C@]1(CNC(=O)c2cc(Cl)cc(NC(=O)OCc3ccccc3)c2)CNCCOC1 ¦&1:1¦] | < 4.05
42 | O=C(Nc1cc(Cl)cc(C(=O)Nc2ccc3c(c2)CNC3)c1)OCc1ccccc1 [ASAP-0020915] | 6.77
43 | O=C(Nc1cc(Cl)cc(C(=O)NC[C@@H]2CNCCC2(F)F)c1)OCc1ccccc1 [ASAP-0021511, O=C(Nc1cc(Cl)cc(C(=O)NC[C@@H]2CNCCC2(F)F)c1)OCc1ccccc1 ¦&1:13¦] | < 4.05
44 | O=C(Nc1cc(Cl)cc(C(=O)NC[C@H]2CNC3(CC3)CO2)c1)OCc1ccccc1 [ASAP-0021445, O=C(Nc1cc(Cl)cc(C(=O)NC[C@H]2CNC3(CC3)CO2)c1)OCc1ccccc1 ¦&1:13¦] | < 4.05
45 | O=C(Nc1cc(Cl)cc(C(=O)NC[C@@H]2CC3(CNC3)CO2)c1)OCc1ccccc1 [ASAP-0021589, O=C(Nc1cc(Cl)cc(C(=O)NC[C@@H]2CC3(CNC3)CO2)c1)OCc1ccccc1 ¦&1:13¦] | 4.38

Same assay, conditions: library 1, supplement; read-out: ZIKV NS2B-NS3 Ki

Row | Compound | Ki [µM]
46 | NC[C@H]1C[C@@H](CNC(=O)c2cc(Cl)cc(NC(=O)OCc3ccccc3)c2)CCO1 [ASAP-0021664, NC[C@H]1C[C@@H](CNC(=O)c2cc(Cl)cc(NC(=O)OCc3ccccc3)c2)CCO1 ¦&1:2,&2:4¦] | > 89.3
47 | C=CC[C@@]1(NC(=O)c2cc(Cl)cc(NC(=O)OCc3ccccc3)c2)CCNC1 [ASAP-0021490, C=CC[C@@]1(NC(=O)c2cc(Cl)cc(NC(=O)OCc3ccccc3)c2)CCNC1 ¦&1:3¦] | > 89.3
48 | C[C@]1(CNC(=O)c2cc(Cl)cc(NC(=O)OCc3ccccc3)c2)CNCCOC1 [ASAP-0021641, C[C@]1(CNC(=O)c2cc(Cl)cc(NC(=O)OCc3ccccc3)c2)CNCCOC1 ¦&1:1¦] | > 89.3
49 | O=C(Nc1cc(Cl)cc(C(=O)Nc2ccc3c(c2)CNC3)c1)OCc1ccccc1 [ASAP-0020915] | 0.164
50 | O=C(Nc1cc(Cl)cc(C(=O)NC[C@@H]2CNCCC2(F)F)c1)OCc1ccccc1 [ASAP-0021511, O=C(Nc1cc(Cl)cc(C(=O)NC[C@@H]2CNCCC2(F)F)c1)OCc1ccccc1 ¦&1:13¦] | > 89.3
51 | O=C(Nc1cc(Cl)cc(C(=O)NC[C@H]2CNC3(CC3)CO2)c1)OCc1ccccc1 [ASAP-0021445, O=C(Nc1cc(Cl)cc(C(=O)NC[C@H]2CNC3(CC3)CO2)c1)OCc1ccccc1 ¦&1:13¦] | > 89.3
52 | O=C(Nc1cc(Cl)cc(C(=O)NC[C@@H]2CC3(CNC3)CO2)c1)OCc1ccccc1 [ASAP-0021589, O=C(Nc1cc(Cl)cc(C(=O)NC[C@@H]2CC3(CNC3)CO2)c1)OCc1ccccc1 ¦&1:13¦] | 41.3
